Key:
sandy soil = assay: Nitrogen retention in field trials (NH4-nitrogen content of soil); type: in vivo; settings: incorporation depth 0 cm
Procedure: An area of sandy soil, previously untreated with fertilizer or other agricultural products near the field station Limburgerh of, was treated as follows. Drainage pipes of 20 cm in length and 12 cm diameter were inserted 10 cm deep into the soil. A treatment as indicated in a line of Table 10 was added on top of the soil under which a pipe was buried. At the beginning of the experiment and after three weeks, the pipes were dug out of the soil with its content, the content emptied into a bag and frozen on site. The soil was then analyzed for NH4-nitrogen content in the laboratory according to the following method: Samples were defrosted for 24 h, then sieved through a 5-6 mm mesh sieve. 200 g of the thus homogenized samples were put into 1 L plastic bottles and 600 mL of a […] solution (1% (w/w) K2SO4 in water) were added. The samples were then shaken for 2 h end over end. The solution was filtered to remove the soil and 50 mL of the filtrate retained for analysis in a Continuous Flow Analyzer for NH4-nitrogen content.

[1] = Volatility measurement at 35° C. (weight loss of beakers in oil bath); type: physicochemical; settings: relative to the initial weight, after 23 hours at 35° C.
Procedure: Five beakers B1-B5 were prepared containing samples as specified in Table 2
(§1) All 5 beakers were mounted in an oil bath such that half of the beakers were immersed. The temperature of the oil bath was set to 35° C. During the heating process, the beakers were periodically taken out of the oil bath, dried, and weighted. The total mass of the beaker with samples was noted and compared to the initial weight of the beakers with samples. The weight loss attributed to Compound A was calculated from the total weight loss of the sample by taking the loading of the respective sample with Compound A into account. A comparison of the weight loss of Compound A, and the whole sample weight loss in the all 5 beakers after 23 hours at 35° C. was shown in the Table 3.

[2] = Volatility measurement at 60° C. (weight loss after 32 hours); type: physicochemical; settings: relative to the initial weight, after 32 hours at 60° C.
Procedure: as §1
Five beakers B1-B5 were prepared and treated as described in Example-1 with the differences that the oil bath was set to 60° C. and that the weight loss was recorded after 32 hours.

[3] = Volatility measurement at 100° C.; type: physicochemical; settings: relative to the initial weight, after hours at 100° C.
Procedure: as §1
Five beakers B1-B5 were prepared and treated as described in Example-1 with the differences that the oil bath was set to 100° C. and that the weight loss was recorded after […].

[4] = Volatility measurement at 60° C. with different loading for 24 or 72 hours (beakers B11-B15); type: physicochemical; settings: relative to the initial weight
Procedure: Five beakers B11-B15 were prepared containing samples as specified in Table 8.
All 5 beakers B11-B15 were mounted in an oil bath such that half of the beakers were immersed. The temperature of the oil bath was set to 60′C. During the heating process, the beakers were periodically taken out of the oil bath, dried, and weighted. The total mass of the beaker with samples was noted and compared to the initial weight of the beakers with samples. The weight loss attributed to Compound A was calculated from the total weight loss of the sample by taking the loading of the respective sample with Compound A into account. A comparison of the weight loss of Compound A, and the whole sample weight loss in the all 5 beakers after 24 and 72 hours at 60° C. was shown in the Table 9.

Structure (SMILES)	NH4-nitrogen (sandy soil; 3 weeks after application) [kg/ha]	NH4-nitrogen (sandy soil; at time of application) [kg/ha]	Total sample weight loss [1] [%]	Weight loss of Compound A [1] [%]	Total sample weight loss [2] [%]	Weight loss of Compound A [2] [%]	Total sample weight loss [3] [%]	Weight loss of Compound A [3] [%]	Total sample weight loss after 24 hours ([4]; 24 hours) [%]	Weight loss of Compound A after 24 hours ([4]; 24 hours) [%]	Total sample weight loss after 72 hours ([4]; 72 hours) [%]	Weight loss of Compound A after 72 hours ([4]; 72 hours) [%]
N.N.O=S(=O)(O)O [Ammonium Sulfate]	8	75										
C#CCOCc1ccc(Cl)cc1 [Compound A, 1-chloro-4-(prop-2-ynoxymethyl)benzene]			4.22	4.22	37.97	37.97	68.82	68.82	9.02	9.02	26.99	26.99
